In publication PMC12275099, “VX-445 (elexacaftor) inhibits chloride secretion across human bronchial epithelial cells by directly blocking KCa3.1 channels” (PNAS Nexus, 2025):
Values joined by “and” are separate entries in the source; they are usually repeats but may differ in a detail not shown here. Identical values can stand only once.

Experiments:
KCa3.1 = molecular target: T1, KCa3.1 (Homo sapiens, UniProt O15554); experiment: Excised inside-out patch-clamp on HEK-KCa3.1; assay type: biochemical
T1 construct: expressed in transfected cells
Procedure: Our Isc results are consistent with VX-445 inhibiting KCa3.1 in HBEs. To directly assess this possibility, we initially carried out whole-cell patch-clamp studies on undifferentiated HBEs. […] Upon application of 10 µM VX-445, a majority of this current was inhibited, averaging 87 ± 4% (n = 3, P < 0.005; Fig. 3B). A summary of the current–voltage (I–V) relationship—normalized to cell capacitance—is shown in Fig. 3C, which also includes the whole-cell I–V in the presence of Tram-34. […] To ensure isolation of KCa3.1 currents and to more fully characterize this VX-445-dependent inhibition of KCa3.1, we utilized HEK cells heterologously expressing KCa3.1 (HEK-KCa3.1). Initially, we confirmed our results from HBEs, using whole-cell recordings, as above. […] In seven experiments, this inhibition averaged 58 ± 7% (P < 0.005). […] It is well recognized that drugs are carried to their targets in the blood bound to albumin, which ranges from 3.4 to 5.4%. Thus, we determined whether VX-445 (10 µM) would inhibit KCa3.1 expressed in HEK cells in the presence of 3.4% albumin. In four experiments, VX-445 inhibited an average of 51 ± 17% of the whole-cell KCa3.1 current, which is not different from that observed in the absence of albumin. To confirm the direct effect of VX-445 on KCa3.1, we utilized the excised, inside-out patch-clamp technique. The patch was then exposed to DCEBIO (100 µM) to further activate the channels ([34–37])—analogous to our Isc studies in HBEs. […] In three experiments, VX-445 inhibited an average of 63 ± 6% of the KCa3.1 current. Based on these experiments, we determined the apparent inhibitory constant, Ki for VX-445. For these experiments, patches were excised into saturating Ca^2+ (3 µM) to ensure maximal KCa3.1 activation. These studies were carried out in the absence of DCEBIO to eliminate the possibility that the inhibition observed was due to competition for the DCEBIO-binding site.
(§1) HEK cells stably expressing KCa3.1 (IK1, SK4), KCa2.3 (SK3), and KCa2.2 (SK2) were generated and cultured as previously described by us ([37], [66–71]).
(§2) HEK cells expressing the channel of interest were plated onto poly-L-lysine-coated glass coverslips 1–2 days prior to patch-clamp analysis. Electrophysiological recordings in the excised, inside-out, and whole-cell patch-clamp configurations were performed as recently described ([14]). For excised patch-clamp recordings, the pipette solution contained (in mM): 140 K-gluconate, 5 KCl, 1 CaCl2, 1 MgCl2, and 10 HEPES. The pH was adjusted to 7.2 with KOH. The bath solution contained (in mM): 145 K-gluconate, 5 KCl, 1.3 MgCl2, 10 HEPES, and 1 EGTA. Sufficient CaCl2 was added to obtain the desired free Ca^2+ concentration at a pH of 7.2 (adjusted with KOH). When recording KCa3.1 channels, ATP (300 µM) was added to the bath to diminish channel rundown ([73]). All recordings were carried out at a voltage of −100 mV, referenced to the extracellular compartment, as is standard. The apparent Ki and Hill coefficient for each CFTR corrector on KCa3.1, KCa2.3, and KCa2.2 were determined during a continuous recording by step-wise addition of increasing concentrations of compound and fitting the resultant relative remaining current to a Hill equation (Prism v. 10.1.0). The zero current level was determined by the addition of a 0 Ca^2+ solution (zero-added Ca^2+ plus 1 mM EGTA) at the end of the experiment. In the case of KCa3.1, TRAM-34, a known inhibitor of KCa3.1 ([45]), was used to confirm expression of the channel. For whole-cell experiments, pipettes contained (in mM): 145 K-gluconate, 10 EGTA, 7.5 CaCl2, 2 MgCl2, 3 mM NaATP, and 10 HEPES. The bath solution contained (in mM): 140 K-gluconate, 5 KCl, 1.0 MgCl2, 10 HEPES, and 2 CaCl2. Current–voltage relationships were determined by stepping from a holding potential of −80 mV to +80 mV in 20 mV increments for 400 ms. […]

KCa2.3 = KCa2.3 (Homo sapiens, UniProt Q9UGI6); experiment: Excised inside-out patch-clamp on HEK cells expressing KCa2.3; assay type: biochemical
Procedure: (§3) As above, we performed excised patch-clamp recordings on HEK cells heterologously expressing KCa2.3 or KCa2.2, in order to assess the activity of C2 CFTR corrector compounds. […] In contrast, the subsequent addition of 10 µM VX-659 yielded an almost complete inhibition of KCa2.3 currents, averaging 91 ± 3% (n = 4).
as §1
as §2, with “In the case of KCa3.1, TRAM-34, a known inhibitor of KCa3.1 ([45]), was used to confirm expression of the channel. For whole-cell experiments, pipettes contained (in mM): 145 K-gluconate, 10 EGTA, 7.5 CaCl2, 2 MgCl2, 3 mM NaATP, and 10 HEPES. The bath solution contained (in mM): 140 K-gluconate, 5 KCl, 1.0 MgCl2, 10 HEPES, and 2 CaCl2.” left out, “ms. The middle 300 ms of each trace was selected to avoid any influence of capacitive transients, and average currents were calculated for each voltage via the I–V tool in Clampfit.” for “ms.”

KCa2.2 = KCa2.2 (Rattus norvegicus, UniProt P70604); experiment: Excised inside-out patch-clamp on HEK cells expressing KCa2.2; assay type: biochemical; conditions: 1 µM free Ca2+
Procedure: as §3, §1
HEK cells expressing the channel of interest were plated onto poly-L-lysine-coated glass coverslips 1–2 days prior to patch-clamp analysis. […] The apparent Ki and Hill coefficient for each CFTR corrector on KCa3.1, KCa2.3, and KCa2.2 were determined during a continuous recording by step-wise addition of increasing concentrations of compound and fitting the resultant relative remaining current to a Hill equation (Prism v. 10.1.0). The zero current level was determined by the addition of a 0 Ca^2+ solution (zero-added Ca^2+ plus 1 mM EGTA) at the end of the experiment. […] Current–voltage relationships were determined by stepping from a holding potential of −80 mV to +80 mV in 20 mV increments for 400 ms. The middle 300 ms of each trace was selected to avoid any influence of capacitive transients, and average currents were calculated for each voltage via the I–V tool in Clampfit. […]

[1] = tested on: BKCa (KCa1.1, KCNMA1) channels; set-up: method as in PMID 38954478; conditions: primary HBEs and HEK cells heterologously expressing the channel; cited from earlier work

Chain of KCa2.3 (Q9UGI6 whole entry): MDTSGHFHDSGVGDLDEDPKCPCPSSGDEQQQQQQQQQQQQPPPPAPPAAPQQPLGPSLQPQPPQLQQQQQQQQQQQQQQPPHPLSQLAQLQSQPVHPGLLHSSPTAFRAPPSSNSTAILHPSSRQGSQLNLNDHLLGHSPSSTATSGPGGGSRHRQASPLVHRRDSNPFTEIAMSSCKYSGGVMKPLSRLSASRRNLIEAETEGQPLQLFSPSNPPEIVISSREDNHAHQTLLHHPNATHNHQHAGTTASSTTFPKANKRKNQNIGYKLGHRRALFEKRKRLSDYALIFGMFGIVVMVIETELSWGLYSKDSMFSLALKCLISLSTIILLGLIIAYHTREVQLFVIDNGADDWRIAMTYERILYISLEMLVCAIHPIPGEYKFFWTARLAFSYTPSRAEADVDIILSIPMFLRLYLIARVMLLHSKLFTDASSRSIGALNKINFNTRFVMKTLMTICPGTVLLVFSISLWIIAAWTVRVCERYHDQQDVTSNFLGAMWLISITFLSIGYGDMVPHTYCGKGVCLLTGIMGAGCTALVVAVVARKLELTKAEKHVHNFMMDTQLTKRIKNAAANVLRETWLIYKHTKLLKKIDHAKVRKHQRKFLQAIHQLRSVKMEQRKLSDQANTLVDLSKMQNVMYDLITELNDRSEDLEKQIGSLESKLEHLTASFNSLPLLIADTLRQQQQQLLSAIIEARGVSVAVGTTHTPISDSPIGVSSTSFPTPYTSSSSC
Chain of KCa2.2 (P70604 whole entry): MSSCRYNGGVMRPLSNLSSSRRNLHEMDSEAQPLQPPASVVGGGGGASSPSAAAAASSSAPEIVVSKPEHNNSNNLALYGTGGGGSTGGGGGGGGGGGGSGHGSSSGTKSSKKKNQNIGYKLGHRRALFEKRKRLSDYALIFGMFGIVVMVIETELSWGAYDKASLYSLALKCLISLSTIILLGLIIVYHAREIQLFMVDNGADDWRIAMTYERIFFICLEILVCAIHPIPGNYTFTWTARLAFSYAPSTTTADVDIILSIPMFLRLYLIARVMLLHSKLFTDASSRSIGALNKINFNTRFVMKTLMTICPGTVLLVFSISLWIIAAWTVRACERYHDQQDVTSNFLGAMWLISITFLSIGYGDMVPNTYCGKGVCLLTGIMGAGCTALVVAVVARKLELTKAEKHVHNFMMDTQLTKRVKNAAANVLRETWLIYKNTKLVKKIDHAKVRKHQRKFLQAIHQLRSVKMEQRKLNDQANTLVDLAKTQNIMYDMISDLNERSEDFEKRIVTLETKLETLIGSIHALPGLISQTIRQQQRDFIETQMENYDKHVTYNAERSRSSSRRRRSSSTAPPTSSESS

In the case of C[C@@H]1CN(c2nc(-n3ccc(OCCC4(C(F)(F)F)CC4)n3)ccc2C(=O)NS(=O)(=O)c2ccccc2)C(C)(C)C1 [VX-659, bamocaftor], the Hill coefficient (KCa3.1; 3 µM free Ca2+, absence of DCEBIO) is reported as 1.8, the Ki (KCa3.1; 3 µM free Ca2+, absence of DCEBIO, Hill fit, n = 4, read-out: apparent Ki) is reported as 890 nM and 900 nM and the inhibition at 10 µM (KCa3.1; 10 µM compound after DCEBIO 100 µM, 1 µM free Ca2+, three experiments, read-out: inhibition of KCa3.1 current in excised patch) is reported as 98 ± 1%. For the same compound, the “selectivity among KCNN gene family members” value (KCa3.1; KCa3.1 versus KCa2.2 and KCa2.3) was “inhibits all members of the KCNN gene family with a similar affinity”, the relative remaining current (KCa3.1; [VX-659] 0.3, Fig 4G single experiments) was 89 and 100 and 78 and 88 and the Hill coefficient (KCa2.3; 1 µM free Ca2+) was 1.9 and 1.3. The inhibition at 10 µM (KCa2.3; read-out: inhibition of KCa2.3 currents) was 91 ± 3%, the Hill coefficient (KCa2.2) was 1.6 and 2.1 and the “effect on BKCa” value [1] was “weakly potentiates”.
